Reference: US20260345619A1 (Principia Biopharma Inc., priority 2023, published 2026)

Assay: Pre-bronchodilator FEV1 and percent predicted FEV1 by spirometry, change from baseline
Assay type: in vivo, human
Details: for Change from baseline in pre-bronchodilator FEV1, LS Mean (SE) / Change from baseline in pre-bronchodilator FEV1, LS Mean Diff vs. placebo (95% CI) / Change from baseline in pre-bronchodilator FEV1, Mean (SD): EOT (Week 12); for FEV1 change / improvement (in words): following ICS/LABA withdrawal, both cohorts
Experimental: Spirometry is a standard test to measure patients' lung function.
The primary endpoint was the proportion of patients with LOAC. The key secondary endpoint for the study was change in pre-bronchodilator FEV1 from baseline at EOT.
Reversibility is defined as an increase of the absolute FEV1 after administration of bronchodilator and is measured by spirometry as postbronchodilator increase in FEV1 in percent of the prebronchodilator FEV1. After spirometry for measuring prebronchodilator FEV1, participants were to receive 2-4 puffs of albuterol/salbutamol or levalbuterol/levosalbutamol from a primed MDI. The postbronchodilator spirometry may have been repeated several times within 30 minutes after administration of bronchodilator. Alternatively, and only if it was consistent with usual office practice (to be documented), reversibility may have been performed using inhalation of nebulized albuterol/salbutamol or levalbuterol/levosalbutamol.
Secondary endpoints included pre-bronchodilator FEV1 change from baseline at EOT, ACQ-5 score change from baseline, and AQLQ score change from baseline. Other secondary and exploratory endpoints are described in Table 2.

[1] = 400 mg TID, Week 12, smoking history Never
[2] = 400 mg TID, low EOS (<0.15) and low FeNO (<25), mITT
[3] = 400 mg TID, Week 2, observed/LOCF imputed, mITT
[4] = 400 mg TID, Week 4, observed/LOCF imputed, mITT
[5] = 400 mg TID, Week 6, observed/LOCF imputed, mITT
[6] = 400 mg TID, Week 8, observed/LOCF imputed, mITT
[7] = 400 mg TID, Week 10, observed/LOCF imputed, mITT
[8] = 400 mg TID, Week 12 (EOT), MMRM supplementary analysis, mITT
[9] = 400 mg TID, Week 12 (EOT), MMRM, mITT
[10] = 400 mg TID, Week 12, observed/LOCF imputed, mITT
[11] = 400 mg TID, Week 12, reduced model, mITT

For CC(C)(C=C(C#N)C(=O)N1CCC[C@@H](n2nc(-c3ccc(Oc4ccccc4)cc3F)c3c(N)ncnc32)C1)N1CCN(C2COC2)CC1 (mixture of isomers) [rilzabrutinib, (R)-2-[3-[4-amino-3-(2-fluoro-4-phenoxy-phenyl)pyrazolo[3,4-d]pyrimidin-1-yl]piperidine-1-carbonyl]-4-methyl-4-[4-(oxetan-3-yl)piperazin-1-yl]pent-2-enenitrile], the “Pre-bronchodilator FEV1 change from baseline, LS Mean Diff vs. placebo” value [1] was -0.09 L, the “Pre-bronchodilator FEV1 change from baseline, Mean” value [1] was -0.15 L and the “Difference vs. placebo, LS mean change in pre-bronchodilator FEV1 (L) at Week 12” value (400 mg TID, 95% CI −0.21, 0.03, p=0.1523) was -0.09 L. For the same compound, the “Change from baseline in pre-bronchodilator FEV1, LS Mean (SE)” value (400 mg TID, all others, mITT) was -0.09 L, the “Change from baseline in pre-bronchodilator FEV1, LS Mean Diff vs. placebo (95% CI)” value (400 mg TID, all others, mITT) was -0.07 L and the “Change from baseline in pre-bronchodilator FEV1, Mean (SD)” value (400 mg TID, all others, mITT, n=30) was -0.11 L. For the same compound, the “Change from baseline in pre-bronchodilator FEV1, LS Mean (SE)” value [2] was -0.20 L, the “Change from baseline in pre-bronchodilator FEV1, LS Mean Diff vs. placebo (95% CI)” value [2] was -0.14 L and the “Change from baseline in pre-bronchodilator FEV1, Mean (SD)” value (400 mg TID, low EOS (<0.15) and low FeNO (<25), mITT, n=16) was -0.24 L. For the same compound, the “LS Mean change from baseline in pre-bronchodilator FEV1 (L) at Week 12” value (400 mg TID, N=64, mITT) was −0.13 (0.05) L, the “Pre-bronchodilator FEV1, mean” value [3] was 2.47 L and the “Pre-bronchodilator FEV1, median” value [3] was 2.37 L. The “Pre-bronchodilator FEV1 change from baseline, LS Mean” value [3] was -0.05 L, the “Pre-bronchodilator FEV1 change from baseline, LS Mean Diff vs. placebo” value [3] was -0.04 L and the “Pre-bronchodilator FEV1 change from baseline, Mean” value [3] was -0.04 L. For the same compound, the “Pre-bronchodilator FEV1 change from baseline, median” value [3] was -0.02 L, the “Pre-bronchodilator FEV1, mean” value [4] was 2.58 L and the “Pre-bronchodilator FEV1, median” value [4] was 2.50 L. The “Pre-bronchodilator FEV1 change from baseline, LS Mean” value [4] was -0.01 L, the “Pre-bronchodilator FEV1 change from baseline, LS Mean Diff vs. placebo” value [4] was 0.05 L and the “Pre-bronchodilator FEV1 change from baseline, Mean” value [4] was 0.02 L. For the same compound, the “Pre-bronchodilator FEV1 change from baseline, median” value [4] was -0.01 L, the “Pre-bronchodilator FEV1, mean” value [5] was 2.52 L and the “Pre-bronchodilator FEV1, median” value [5] was 2.37 L. The “Pre-bronchodilator FEV1 change from baseline, LS Mean” value [5] was -0.07 L, the “Pre-bronchodilator FEV1 change from baseline, LS Mean Diff vs. placebo” value [5] was 0.04 L and the “Pre-bronchodilator FEV1 change from baseline, Mean” value [5] was -0.07 L. The “Pre-bronchodilator FEV1 change from baseline, median” value [5] was -0.09 L, the “Pre-bronchodilator FEV1, mean” value [6] was 2.41 L and the “Pre-bronchodilator FEV1, median” value [6] was 2.38 L. For the same compound, the “Pre-bronchodilator FEV1 change from baseline, LS Mean” value [6] was -0.07 L, the “Pre-bronchodilator FEV1 change from baseline, LS Mean Diff vs. placebo” value [6] was 0.03 L and the “Pre-bronchodilator FEV1 change from baseline, Mean” value [6] was -0.12 L. For the same compound, the “Pre-bronchodilator FEV1 change from baseline, median” value [6] was -0.10 L, the “Pre-bronchodilator FEV1, mean” value [7] was 2.53 L and the “Pre-bronchodilator FEV1, median” value [7] was 2.50 L. The “Pre-bronchodilator FEV1 change from baseline, LS Mean” value [7] was -0.09 L, the “Pre-bronchodilator FEV1 change from baseline, LS Mean Diff vs. placebo” value [7] was 0.00 L and the “Pre-bronchodilator FEV1 change from baseline, Mean” value [7] was -0.10 L. For the same compound, the “Pre-bronchodilator FEV1 change from baseline, median” value [7] was -0.09 L, the “Change from baseline in pre-bronchodilator FEV1, Mean” value [8] was -0.14 L and the “Change from baseline in pre-bronchodilator FEV1, Median” value [8] was -0.09 L. For the same compound, the “Pre-bronchodilator FEV1, Mean” value [8] was 2.46 L, the “Pre-bronchodilator FEV1, Median” value [8] was 2.40 L and the “Change from baseline in pre-bronchodilator FEV1, LS Mean” value [9] was -0.16 L. For the same compound, the “Change from baseline in pre-bronchodilator FEV1, LS Mean diff vs. placebo” value [9] was -0.08 L, the “Change from baseline in pre-bronchodilator FEV1, Mean” value [10] was -0.15 L and the “Change from baseline in pre-bronchodilator FEV1, Median” value [10] was -0.12 L. For the same compound, the “Pre-bronchodilator FEV1, Mean” value [10] was 2.43 L, the “Pre-bronchodilator FEV1, Median” value [10] was 2.39 L and the “Pre-bronchodilator FEV1, mean” value [10] was 2.43 L. For the same compound, the “Pre-bronchodilator FEV1, median” value [10] was 2.39 L, the “Pre-bronchodilator FEV1 change from baseline, LS Mean” value [10] was -0.13 L and the “Pre-bronchodilator FEV1 change from baseline, LS Mean Diff vs. placebo” value [10] was -0.09 L. For the same compound, the “Pre-bronchodilator FEV1 change from baseline, Mean” value [10] was -0.15 L, the “Pre-bronchodilator FEV1 change from baseline, median” value [10] was -0.12 L and the “Change from baseline in pre-bronchodilator FEV1, LS Mean” value [11] was -0.13 L. For the same compound, the “Change from baseline in pre-bronchodilator FEV1, LS Mean diff vs. placebo” value [11] was -0.09 L, the “FEV1 change / improvement (in words)” value was “did not exhibit any change in FEV1” and the “FEV1 change / improvement (in words)” value (listed as Rilzabrutinib) was “not associated with an improvement in FEV1 values”.
